Measurements reported in PubChem BioAssay (NCI).
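Test compounds were applied to cells in 96-well plates for 48 hours at 5 doses. TGI denotes the concentration required for complete inhibition of growth.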

Assays:
Assay in all cases: NCI-60 cell line screen, 48 h
786-0 renal = system: 786-0 renal
A549 NSCLC = system: A549 NSCLC
ACHN renal = system: ACHN renal
BT-549 breast = system: BT-549 breast
CCRF-CEM leukemia = system: CCRF-CEM leukemia
COLO 205 colon = system: COLO 205 colon
DU-145 prostate = system: DU-145 prostate
HCC-2998 colon = system: HCC-2998 colon
HCT-15 colon = system: HCT-15 colon
HL-60(TB) leukemia = system: HL-60(TB) leukemia
HOP-92 NSCLC = system: HOP-92 NSCLC
HS 578T breast = system: HS 578T breast
HT29 colon = system: HT29 colon
IGROV1 ovarian = system: IGROV1 ovarian
K-562 leukemia = system: K-562 leukemia
KM12 colon = system: KM12 colon
LOX IMVI melanoma = system: LOX IMVI melanoma
M14 melanoma = system: M14 melanoma
MALME-3M melanoma = system: MALME-3M melanoma
MCF7 breast = system: MCF7 breast
MDA-MB-231 breast = system: MDA-MB-231 breast
MDA-MB-435 = system: MDA-MB-435
MDA-N = system: MDA-N
MOLT-4 leukemia = system: MOLT-4 leukemia
NCI-H226 lung = system: NCI-H226 lung
NCI-H23 lung = system: NCI-H23 lung
NCI-H460 lung = system: NCI-H460 lung
NCI-H522 lung = system: NCI-H522 lung
OVCAR-3 ovarian = system: OVCAR-3 ovarian
OVCAR-4 ovarian = system: OVCAR-4 ovarian
OVCAR-5 ovarian = system: OVCAR-5 ovarian
OVCAR-8 ovarian = system: OVCAR-8 ovarian
RPMI-8226 leukemia = system: RPMI-8226 leukemia
RXF 393 renal = system: RXF 393 renal
SF-268 CNS = system: SF-268 CNS
SF-295 CNS = system: SF-295 CNS
SK-MEL-2 melanoma = system: SK-MEL-2 melanoma
SK-MEL-28 melanoma = system: SK-MEL-28 melanoma
SK-MEL-5 melanoma = system: SK-MEL-5 melanoma
SN12C renal = system: SN12C renal
SNB-19 CNS = system: SNB-19 CNS
SNB-75 CNS = system: SNB-75 CNS
SR leukemia = system: SR leukemia
SW-620 colon = system: SW-620 colon
T-47D breast = system: T-47D breast
TK-10 renal = system: TK-10 renal
U251 CNS = system: U251 CNS
UACC-257 melanoma = system: UACC-257 melanoma
UACC-62 melanoma = system: UACC-62 melanoma
UO-31 renal = system: UO-31 renal
A498 renal = system: A498 renal
CAKI-1 renal = system: CAKI-1 renal
EKVX NSCLC = system: EKVX NSCLC
HCT-116 colon = system: HCT-116 colon
HOP-62 NSCLC = system: HOP-62 NSCLC
NCI/ADR-RES ovarian = system: NCI/ADR-RES ovarian
PC-3 prostate = system: PC-3 prostate
SF-539 CNS = system: SF-539 CNS
SK-OV-3 ovarian = system: SK-OV-3 ovarian

## CN1CCN(C(=S)N(C(=O)c2ccc(Cl)cc2)C2CCCCC2)CC1
786-0 renal
  TGI: > 100 µM
A549 NSCLC
  TGI: > 100 µM
ACHN renal
  TGI: > 100 µM
BT-549 breast
  TGI: > 100 µM
CCRF-CEM leukemia
  TGI: > 100 µM
COLO 205 colon
  TGI: > 100 µM
DU-145 prostate
  TGI: > 100 µM
HCC-2998 colon
  TGI: > 100 µM
HCT-15 colon
  TGI: > 100 µM
HL-60(TB) leukemia
  TGI: > 100 µM
HOP-92 NSCLC
  TGI: > 100 µM
HS 578T breast
  TGI: > 100 µM
HT29 colon
  TGI: > 100 µM
IGROV1 ovarian
  TGI: > 100 µM
K-562 leukemia
  TGI: > 100 µM
KM12 colon
  TGI: > 100 µM
LOX IMVI melanoma
  TGI: > 100 µM
M14 melanoma
  TGI: > 100 µM
MALME-3M melanoma
  TGI: > 100 µM
MCF7 breast
  TGI: > 100 µM
MDA-MB-231 breast
  TGI: > 100 µM
MDA-MB-435
  TGI: > 100 µM
MDA-N
  TGI: > 100 µM
MOLT-4 leukemia
  TGI: > 100 µM
NCI-H226 lung
  TGI: > 100 µM
NCI-H23 lung
  TGI: > 100 µM
NCI-H460 lung
  TGI: > 100 µM
NCI-H522 lung
  TGI: > 100 µM
OVCAR-3 ovarian
  TGI: > 100 µM
OVCAR-4 ovarian
  TGI: > 100 µM
OVCAR-5 ovarian
  TGI: > 100 µM
OVCAR-8 ovarian
  TGI: > 100 µM
RPMI-8226 leukemia
  TGI: > 100 µM
RXF 393 renal
  TGI: > 100 µM
SF-268 CNS
  TGI: > 100 µM
SF-295 CNS
  TGI: > 100 µM
SK-MEL-2 melanoma
  TGI: > 100 µM
SK-MEL-28 melanoma
  TGI: > 100 µM
SK-MEL-5 melanoma
  TGI: > 100 µM
SN12C renal
  TGI: > 100 µM
SNB-19 CNS
  TGI: > 100 µM
SNB-75 CNS
  TGI: 85.2 µM
SR leukemia
  TGI: > 100 µM
SW-620 colon
  TGI: > 100 µM
T-47D breast
  TGI: > 100 µM
TK-10 renal
  TGI: > 100 µM
U251 CNS
  TGI: > 100 µM
UACC-257 melanoma
  TGI: > 100 µM
UACC-62 melanoma
  TGI: > 100 µM
UO-31 renal
  TGI: > 100 µM

## O=Cc1ccc(Oc2c3ccccc3nc3ccccc23)cc1
786-0 renal
  TGI: 6.16 µM
A498 renal
  TGI: 14.5 µM
A549 NSCLC
  TGI: 49 µM
ACHN renal
  TGI: 14 µM
BT-549 breast
  TGI: 37.4 µM
CAKI-1 renal
  TGI: 22.3 µM
CCRF-CEM leukemia
  TGI: 6.72 µM
COLO 205 colon
  TGI: 10.1 µM
DU-145 prostate
  TGI: 13.7 µM
EKVX NSCLC
  TGI: 40.2 µM
HCC-2998 colon
  TGI: 28.6 µM
HCT-116 colon
  TGI: 4.9 µM
HCT-15 colon
  TGI: 19.5 µM
HOP-62 NSCLC
  TGI: 33.9 µM
HOP-92 NSCLC
  TGI: 17.7 µM
HS 578T breast
  TGI: 7.91 µM
HT29 colon
  TGI: 4.38 µM
KM12 colon
  TGI: 58.7 µM
LOX IMVI melanoma
  TGI: 11.7 µM
M14 melanoma
  TGI: 10.7 µM
MALME-3M melanoma
  TGI: 30 µM
MCF7 breast
  TGI: 45.4 µM
MDA-MB-231 breast
  TGI: 13.3 µM
MDA-MB-435
  TGI: 6.85 µM
MDA-N
  TGI: 13.8 µM
MOLT-4 leukemia
  TGI: 6.08 µM
NCI-H226 lung
  TGI: 20.2 µM
NCI-H460 lung
  TGI: 33.8 µM
NCI/ADR-RES ovarian
  TGI: > 100 µM
OVCAR-3 ovarian
  TGI: 26 µM
OVCAR-4 ovarian
  TGI: 16.3 µM
OVCAR-5 ovarian
  TGI: 16.7 µM
OVCAR-8 ovarian
  TGI: 21 µM
PC-3 prostate
  TGI: 20.1 µM
RPMI-8226 leukemia
  TGI: 5.95 µM
RXF 393 renal
  TGI: 21.5 µM
SF-268 CNS
  TGI: 17.6 µM
SF-295 CNS
  TGI: 55.4 µM
SF-539 CNS
  TGI: 4.12 µM
SK-MEL-28 melanoma
  TGI: 25.6 µM
SK-MEL-5 melanoma
  TGI: 24.2 µM
SK-OV-3 ovarian
  TGI: 21.6 µM
SN12C renal
  TGI: 11.1 µM
SNB-19 CNS
  TGI: 36.4 µM
SNB-75 CNS
  TGI: 29.5 µM
SR leukemia
  TGI: 7.19 µM
T-47D breast
  TGI: 12.5 µM
TK-10 renal
  TGI: 19.5 µM
U251 CNS
  TGI: 21.9 µM
UACC-257 melanoma
  TGI: 4.89 µM
UACC-62 melanoma
  TGI: 2.74 µM
